Measurements published in patent US4623661A, “Lipoxygenase inhibiting compounds” (Abbott Laboratories, priority 1985, dated 1986).

Columns and labels:
Format in all cases: biochemical
15-lipoxygenase = target: T1, 15-lipoxygenase (Glycine max, UniProt P08170); test: 15-lipoxygenase inhibition (15-lipoxygenase obtained from soybean); conditions: for inhibition at 10 µM: read-out: % Inhibition at Indicated Concentration, 15-lipoxygenase, 10 uM; for inhibition at 100 µM: read-out: % Inhibition at Indicated Concentration, 15-lipoxygenase, 100 uM
T1 construct: 15-lipoxygenase obtained from soybean; from tissue; host or cells: soybean
T1 sequence (P08170 1-839): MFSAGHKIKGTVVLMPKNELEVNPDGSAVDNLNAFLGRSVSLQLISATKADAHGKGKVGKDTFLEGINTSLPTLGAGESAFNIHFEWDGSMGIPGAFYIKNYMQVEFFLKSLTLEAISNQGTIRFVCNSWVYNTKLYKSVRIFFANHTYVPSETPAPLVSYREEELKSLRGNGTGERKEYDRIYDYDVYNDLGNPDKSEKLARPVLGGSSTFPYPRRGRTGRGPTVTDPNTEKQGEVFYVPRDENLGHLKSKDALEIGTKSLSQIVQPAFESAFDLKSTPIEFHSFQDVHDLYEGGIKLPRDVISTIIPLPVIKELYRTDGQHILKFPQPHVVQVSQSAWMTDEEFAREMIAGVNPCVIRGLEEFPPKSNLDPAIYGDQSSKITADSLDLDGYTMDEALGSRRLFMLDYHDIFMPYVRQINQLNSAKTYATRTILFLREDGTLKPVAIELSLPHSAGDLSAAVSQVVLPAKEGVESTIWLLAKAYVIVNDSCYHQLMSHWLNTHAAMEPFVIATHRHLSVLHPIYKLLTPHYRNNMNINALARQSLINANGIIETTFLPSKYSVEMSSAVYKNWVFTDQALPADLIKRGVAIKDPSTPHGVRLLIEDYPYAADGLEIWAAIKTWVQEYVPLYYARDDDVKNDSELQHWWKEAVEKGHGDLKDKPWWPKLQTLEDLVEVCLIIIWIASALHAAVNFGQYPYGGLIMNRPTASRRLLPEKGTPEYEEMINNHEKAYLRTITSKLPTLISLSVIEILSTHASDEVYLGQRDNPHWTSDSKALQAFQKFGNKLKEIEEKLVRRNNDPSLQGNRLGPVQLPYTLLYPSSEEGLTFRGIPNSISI
Procedure: (§1) The compounds of this invention are potent inhibitors of 5-, 12- and 15-lipoxygenase. An assay to determine 5-lipoxygenase activity was performed in incubations containing various concentrations of the test compound and the 20,000 G supernatant from 7.5×10^6 homogenized RBL-1 cells. Reactions were initiated by the addition of radiolabeled arachidonic acid and terminated by acidification and ether extraction. Reaction products were separated from nonconverted substrate by thin layer chromatography and measured by liquid scintillatiton spectroscopy. Inhibition of 5-lipoxygenase activity was calculated as the ratio of the amounts of product formed in the presence and absence of inhibitor.
(§2) The inhibitory activities of the compounds of this invention against 12- and 15-lipoxygenase can be determined in the foregoing assay in which 12-lipoxygenase obtained from human platelets, or 15-lipoxygenase obtained from soybean, is substituted for the 5-lipoxygenase-containing cell supernatant fraction.

12-lipoxygenase = target: T2, 12-lipoxygenase (Homo sapiens, UniProt P18054); test: 12-lipoxygenase inhibition (12-lipoxygenase obtained from human platelets); conditions: for inhibition at 10 µM: read-out: % Inhibition at Indicated Concentration, 12-lipoxygenase, 10 uM; for inhibition at 100 µM: read-out: % Inhibition at Indicated Concentration, 12-lipoxygenase, 100 uM
T2 construct: 12-lipoxygenase obtained from human platelets; from tissue; host or cells: human platelets
T2 sequence (P18054 1-663): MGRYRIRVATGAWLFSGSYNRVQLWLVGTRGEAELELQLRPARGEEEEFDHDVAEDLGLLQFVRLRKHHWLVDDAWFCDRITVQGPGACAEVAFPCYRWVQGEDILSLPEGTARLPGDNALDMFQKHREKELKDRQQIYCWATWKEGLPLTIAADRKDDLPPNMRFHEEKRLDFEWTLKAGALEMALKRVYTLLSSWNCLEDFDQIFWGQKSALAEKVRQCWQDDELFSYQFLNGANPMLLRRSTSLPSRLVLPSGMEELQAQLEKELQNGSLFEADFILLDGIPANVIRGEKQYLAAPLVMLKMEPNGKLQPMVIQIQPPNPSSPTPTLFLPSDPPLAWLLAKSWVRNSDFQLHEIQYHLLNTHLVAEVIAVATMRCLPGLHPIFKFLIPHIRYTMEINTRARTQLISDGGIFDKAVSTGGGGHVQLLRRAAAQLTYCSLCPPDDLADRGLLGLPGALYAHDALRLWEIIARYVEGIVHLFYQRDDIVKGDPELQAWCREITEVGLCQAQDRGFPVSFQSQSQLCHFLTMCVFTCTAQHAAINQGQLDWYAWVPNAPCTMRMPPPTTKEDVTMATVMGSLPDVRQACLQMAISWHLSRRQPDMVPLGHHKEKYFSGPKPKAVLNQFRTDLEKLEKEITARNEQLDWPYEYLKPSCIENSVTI
Procedure: as §1, §2

5-lipoxygenase = target: T3, 5-lipoxygenase (Rattus norvegicus, UniProt P12527); test: 5-Lipoxygenase IC50 determination (20,000 G supernatant from homogenized RBL-1 cells, radiolabeled arachidonic acid); conditions: RBL-1 cell 20,000 G supernatant; linear regression of % inhibition vs log concentration
T3 construct: 20,000 G supernatant from 7.5×10^6 homogenized RBL-1 cells; endogenous in cells; host or cells: RBL-1 cells (20,000 G supernatant of homogenate)
T3 sequence (P12527 1-673): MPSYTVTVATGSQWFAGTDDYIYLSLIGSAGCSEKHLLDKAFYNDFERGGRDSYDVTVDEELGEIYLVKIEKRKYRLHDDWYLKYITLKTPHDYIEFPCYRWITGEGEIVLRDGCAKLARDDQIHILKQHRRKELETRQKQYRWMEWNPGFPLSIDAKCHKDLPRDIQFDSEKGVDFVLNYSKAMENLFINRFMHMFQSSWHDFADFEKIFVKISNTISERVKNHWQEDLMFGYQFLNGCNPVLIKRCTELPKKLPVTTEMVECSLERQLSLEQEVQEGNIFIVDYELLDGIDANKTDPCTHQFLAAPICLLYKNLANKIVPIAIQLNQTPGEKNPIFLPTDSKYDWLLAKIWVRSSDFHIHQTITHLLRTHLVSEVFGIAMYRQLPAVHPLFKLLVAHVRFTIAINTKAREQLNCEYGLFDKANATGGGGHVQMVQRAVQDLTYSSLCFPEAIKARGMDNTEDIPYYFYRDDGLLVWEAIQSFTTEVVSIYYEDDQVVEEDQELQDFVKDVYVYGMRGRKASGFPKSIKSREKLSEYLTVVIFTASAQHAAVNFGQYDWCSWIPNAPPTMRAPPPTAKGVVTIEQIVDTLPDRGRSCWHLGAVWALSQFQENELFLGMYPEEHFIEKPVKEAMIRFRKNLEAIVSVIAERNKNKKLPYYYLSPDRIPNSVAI
Procedure: Reactions were initiated by the addition of radiolabeled arachidonic acid and terminated by acidification and ether extraction. Reaction products were separated from nonconverted substrate by thin layer chromatography and measured by liquid scintillatiton spectroscopy. Inhibition of 5-lipoxygenase activity was calculated as the ratio of the amounts of product formed in the presence and absence of inhibitor.

Q: Which inhibition at 10 µM (15-lipoxygenase) does the source give for CN(O)C(=O)C=Cc1ccc(-c2ccccc2)cc1 [Example 1, N-Methyl 3-(4-biphenyl)acrylohydroxamic acid] here?
A: Its inhibition at 10 µM is 52%.

Q: And the inhibition at 100 µM (15-lipoxygenase)?
A: The inhibition at 100 µM was 74%.

Q: And the inhibition at 10 µM (12-lipoxygenase)?
A: The inhibition at 10 µM was 63%.

Q: What about the inhibition at 100 µM (12-lipoxygenase) of the same compound?
A: The inhibition at 100 µM was 68%.

Q: What does the source list for CN(O)C(=O)C=Cc1cccc(-c2ccccc2)c1 [Example 2, N-methyl-3-(3-biphenyl)-acrylohydroxamic acid]?
A: inhibition at 10 µM (15-lipoxygenase): 43%; inhibition at 100 µM (15-lipoxygenase): 85%; inhibition at 10 µM (12-lipoxygenase): 99%; inhibition at 100 µM (12-lipoxygenase): 96%

Q: Which results are given for O=C(NO)c1ccc(-c2ccccc2)cc1 [Example 7, 4-biphenyl hydroxamic acid]?
A: inhibition at 10 µM (15-lipoxygenase): 0%; inhibition at 100 µM (15-lipoxygenase): 30%; inhibition at 10 µM (12-lipoxygenase): 86%; inhibition at 100 µM (12-lipoxygenase): 97%; IC50 (5-lipoxygenase): 4.1 µM

Q: O=C(NO)c1cccc(-c2ccccc2)c1 [Example 8, 3-biphenyl hydroxamic acid] was tested. Which inhibition at 10 µM (15-lipoxygenase) did it give?
A: The inhibition at 10 µM was 33%.

Q: And the inhibition at 100 µM (15-lipoxygenase)?
A: The inhibition at 100 µM was 33%.

Q: What about the IC50 (5-lipoxygenase) of the same compound?
A: The IC50 was 6 µM.

Q: With O=C(NO)c1ccc2c(ccc3ccccc32)c1 [Example 12, 2-Phenanthrylhydroxamic acid] as the compound, how does the IC50 (5-lipoxygenase) read?
A: The IC50 was 1.9 µM.

Q: Which inhibition at 10 µM (15-lipoxygenase) does the source give for O=C(NO)c1ccc2ccc3ccccc3c2c1 [Example 13, 3-Phenanthryl hydroxamic acid] here?
A: The inhibition at 10 µM was 25%.

Q: What about the inhibition at 100 µM (15-lipoxygenase) of the same compound?
A: Its inhibition at 100 µM is 39%.

Q: What about the IC50 (5-lipoxygenase) of the same compound?
A: The IC50 was 1.2 µM.
